The record followed here is patent US20160318987A1 (MEDIMMUNE LIMITED, priority 2013, published 2016).

The structures appear in SMILES notation. Where a SMILES comes first, the peptide text is derived from it. [ ]: non-standard residue; d: D form. αMeF = C[C@](N)(Cc1ccccc1)C(=O)O; αMeK = C[C@](N)(CCCCN)C(=O)O; Aib = CC(C)(N)C(=O)O

Assay type in all cases: cell-based
Holding throughout (details): n = 2

Experiment [1] deals with T1, hGluc-R (Homo sapiens, UniProt P47871).
T1 construct: expressed in transfected cells
T1 sequence (P47871 26-477): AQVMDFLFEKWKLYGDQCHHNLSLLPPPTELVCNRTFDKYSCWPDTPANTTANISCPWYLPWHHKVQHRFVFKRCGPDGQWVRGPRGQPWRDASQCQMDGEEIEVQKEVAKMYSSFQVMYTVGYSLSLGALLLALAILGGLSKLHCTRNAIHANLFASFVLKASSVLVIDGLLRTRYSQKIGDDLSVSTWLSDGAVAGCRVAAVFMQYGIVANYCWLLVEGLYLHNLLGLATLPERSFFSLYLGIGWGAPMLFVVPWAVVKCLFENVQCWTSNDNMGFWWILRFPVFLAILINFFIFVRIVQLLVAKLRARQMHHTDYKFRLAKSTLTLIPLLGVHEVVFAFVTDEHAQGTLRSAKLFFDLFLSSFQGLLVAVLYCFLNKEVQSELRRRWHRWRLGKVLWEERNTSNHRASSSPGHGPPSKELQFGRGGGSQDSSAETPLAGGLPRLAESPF
As to the kind of experiment: cAMP functional assay, cells expressing human glucagon receptor (primary assay). On the procedure: The biological activities/receptor potencies of the synthetic GLP-1 peptides described herein are suitably tested for biological activity, e.g., stimulation of one or more cellular receptor responses. Stable cell lines expressing human, mouse, rat, or dog GLP-1 receptor (GLP-1R), glucagon receptor (GCGR) or glucose-dependent insulinotropic peptide (gastric inhibitory polypeptide) receptor (GIPR) are generated in HEK293 cells or CHO cells by standard methods.
cAMP assays were performed using “assay buffer”: Assay Buffer: 0.1% BSA (Sigma #A3059) in HBSS (Sigma #H8264) with 25 mM HEPES, pH 7.4 and containing 0.5 mM IBMX (Sigma #17018).
Low protein binding 384-well plates (Greiner #781280) are used to perform eleven 1 in 5 serial dilutions of test samples which are made in assay buffer. All sample dilutions are made in duplicate.
A frozen cryo-vial of cells expressing the receptor of interest is thawed rapidly in a water-bath, transferred to pre-warmed assay buffer and spun at 240× g for 5 minutes. Cells are re-suspended in assay buffer at a batch-dependent optimized concentration (e.g. hGCGR cells at 2×10^5 cells/ml, hGLP-1R and hGIPR cells at 1×10^5 cells /ml).
From the dilution plate, a 5 μL replica is stamped onto a black shallow-well u-bottom 384-well plate (Corning #3676). To this, 5 μL cell suspension is added and the plates incubated at room temperature for 30 minutes.
cAMP levels are measured using a commercially available cAMP dynamic 2 HTRF kit (Cisbio, Cat #62AM4PEJ), following the two step protocol as per manufacturer's recommendations. In brief; anti-cAMP cryptate (donor fluorophore) and cAMP-d2 (acceptor fluorophore) are made up separately by diluting each 1/20 in conjugate & lysis buffer provided in the kit. 5 μL anti-cAMP cryptate is added to all wells of the assay plate, and 5 μL cAMP-d2 is added to all wells except non-specific binding (NSB) wells, to which conjugate and lysis buffer are added. Plates are incubated at room temperature for one hour and then read on an Envision (Perkin Elmer) using excitation wavelength of 320 nm and emission wavelengths of 620 nm & 665 nm. EC50 values of the synthetic peptides determined in cAMP assays are then determined.

For experiment [2], the target named is T2, hGLP-1R (Homo sapiens, UniProt P43220).
T2 construct: expressed in transfected cells
T2 sequence (P43220 24-463): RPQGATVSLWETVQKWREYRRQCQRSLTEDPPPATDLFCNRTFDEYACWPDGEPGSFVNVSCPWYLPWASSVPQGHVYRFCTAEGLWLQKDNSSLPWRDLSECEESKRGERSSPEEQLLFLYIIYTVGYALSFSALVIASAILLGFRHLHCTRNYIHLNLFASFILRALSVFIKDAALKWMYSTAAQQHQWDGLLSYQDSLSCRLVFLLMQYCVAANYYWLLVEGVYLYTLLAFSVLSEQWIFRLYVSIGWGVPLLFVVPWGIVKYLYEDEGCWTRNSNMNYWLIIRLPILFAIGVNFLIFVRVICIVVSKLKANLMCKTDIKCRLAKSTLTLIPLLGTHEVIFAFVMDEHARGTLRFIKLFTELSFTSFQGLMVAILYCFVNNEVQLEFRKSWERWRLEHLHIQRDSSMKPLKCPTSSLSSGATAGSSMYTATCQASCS
Put plainly: cAMP functional assay, cells expressing human GLP-1 receptor (primary assay).

Experiment [3] addresses T3, hGIP-R (Homo sapiens, UniProt P48546).
T3 construct: expressed in transfected cells
T3 sequence (P48546 22-466): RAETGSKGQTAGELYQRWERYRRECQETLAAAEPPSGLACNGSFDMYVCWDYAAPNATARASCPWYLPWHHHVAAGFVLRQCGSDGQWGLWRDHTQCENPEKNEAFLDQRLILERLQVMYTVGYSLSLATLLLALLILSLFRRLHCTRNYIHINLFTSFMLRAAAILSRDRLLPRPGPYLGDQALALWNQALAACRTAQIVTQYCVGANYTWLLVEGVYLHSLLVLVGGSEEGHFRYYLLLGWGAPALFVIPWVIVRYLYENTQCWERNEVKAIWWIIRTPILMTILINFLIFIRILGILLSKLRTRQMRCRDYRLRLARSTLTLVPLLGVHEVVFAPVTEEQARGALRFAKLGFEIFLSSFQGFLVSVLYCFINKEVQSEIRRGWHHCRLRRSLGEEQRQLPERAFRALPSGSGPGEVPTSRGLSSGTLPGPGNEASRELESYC
As to the kind of experiment: cAMP functional assay, cells expressing human GIP receptor (primary assay).

Turning to `CC[C@H](C)[C@H](NC(=O)[C@H](Cc1ccccc1)NC(=O)[C@H](CCC(=O)O)NC(=O)[C@H](CCCCN)NC(=O)[C@H](C)NC(=O)[C@H](C)NC(=O)[C@H](CCC(N)=O)NC(=O)CNC(=O)[C@H](CCC(=O)O)NC(=O)[C@H](CC(C)C)NC(=O)C(C)(C)NC(=O)[C@H](CO)NC(=O)[C@H](CO)NC(=O)[C@@H](NC(=O)[C@H](CC(=O)O)NC(=O)[C@H](CO)NC(=O)[C@@H](NC(=O)[C@H](Cc1ccccc1)NC(=O)[C@@H](NC(=O)CNC(=O)[C@H](CCC(=O)O)NC(=O)C(C)(C)NC(=O)[C@@H](N)Cc1c[nH]cn1)[C@@H](C)O)[C@@H](C)O)C(C)C)C(=O)N[C@@H](C)C(=O)N[C@@H](Cc1c[nH]c2ccccc12)C(=O)N[C@@H](CC(C)C)C(=O)N[C@H](C(=O)N[C@@H](CCCCN)C(=O)NCC(=O)N[C@@H](CCCNC(=N)N)C(N)=O)C(C)C` [SEQ ID NO: 10, H-(Aib)^2-EGT^5 FTSDV^10 SS-(Aib)^13-LE^15 GQAAK^20 EFIAW^25 LVKGR^30] (H-H[Aib]EGTFTSDVSS[Aib]LEGQAAKEFIAWLVKGR-NH2), the EC50 amounted to 131 nM in experiment [1], 0.0437 nM in experiment [2] and 131 nM in experiment [3].

`CC[C@H](C)[C@H](NC(=O)[C@H](Cc1ccccc1)NC(=O)[C@H](CCC(=O)O)NC(=O)[C@H](CCCCN)NC(=O)[C@H](C)NC(=O)[C@H](C)NC(=O)[C@H](CCC(N)=O)NC(=O)CNC(=O)[C@H](CCC(=O)O)NC(=O)[C@H](CC(C)C)NC(=O)[C@H](Cc1ccc(O)cc1)NC(=O)[C@H](CO)NC(=O)[C@H](CO)NC(=O)[C@@H](NC(=O)[C@H](CC(=O)O)NC(=O)[C@H](CO)NC(=O)[C@@H](NC(=O)[C@H](Cc1ccccc1)NC(=O)[C@@H](NC(=O)CNC(=O)[C@H](CCC(=O)O)NC(=O)C(C)(C)NC(=O)[C@@H](N)Cc1c[nH]cn1)[C@@H](C)O)[C@@H](C)O)C(C)C)C(=O)N[C@@H](C)C(=O)NC(C)(C)C(=O)N[C@@H](CC(C)C)C(=O)N[C@H](C(=O)N[C@@H](CCCCN)C(=O)NCC(=O)N[C@@H](CCCNC(=N)N)C(N)=O)C(C)C` [SEQ ID NO: 15, H-(Aib)^2-EGT^5 FTSDV^10 SSYLE^15 GQAAK^20 EFIA-(Aib)^25 LVKGR^30]: the 50% effective concentration (EC50) turned out to be 177 nM in experiment [1], 0.0465 nM in experiment [2] and 177 nM in experiment [3].

For the compound `CC[C@H](C)[C@H](NC(=O)[C@](C)(Cc1ccccc1)NC(=O)[C@H](CCC(=O)O)NC(=O)[C@](C)(CCCCN)NC(=O)[C@H](C)NC(=O)[C@H](C)NC(=O)[C@H](CCC(N)=O)NC(=O)CNC(=O)[C@H](CCC(=O)O)NC(=O)[C@H](CC(C)C)NC(=O)[C@](C)(Cc1ccc(O)cc1)NC(=O)[C@H](CO)NC(=O)[C@H](CO)NC(=O)[C@@H](NC(=O)[C@H](CC(=O)O)NC(=O)[C@H](CO)NC(=O)[C@@H](NC(=O)[C@](C)(Cc1ccccc1)NC(=O)[C@H](CO)NC(=O)CNC(=O)[C@H](CCC(=O)O)NC(=O)C(C)(C)NC(=O)[C@@H](N)Cc1c[nH]cn1)[C@@H](C)O)C(C)C)C(=O)N[C@@H](C)C(=O)N[C@@](C)(Cc1c[nH]c2ccccc12)C(=O)N[C@@H](CC(C)C)C(=O)N[C@H](C(=O)N[C@@](C)(CCCCN)C(=O)NCC(=O)N[C@@](C)(CCCNC(=N)N)C(N)=O)C(C)C` [SEQ ID NO: 57, H-(Aib)^2-EG-(S)^5-(α-MeF)^6-TSDV^10 SS-(α-MeY)^13-LE^15 GQAA-(α-MeK)^20 E-(α-MeF)^22-IA-(α-MeW)^25 LV-(α-MeK)^28-G-(α-MeR)^30], the 50% effective concentration (EC50) stood at 19.9 nM in experiment [1], 0.0271 nM in experiment [2] and 139 nM in experiment [3].

Take `CC[C@H](C)[C@H](NC(=O)C(C)(C)NC(=O)[C@H](CCC(=O)O)NC(=O)[C@H](CCCCN)NC(=O)[C@H](C)NC(=O)[C@H](C)NC(=O)[C@H](CCC(N)=O)NC(=O)CNC(=O)[C@H](CCC(=O)O)NC(=O)[C@H](CC(C)C)NC(=O)[C@H](Cc1ccc(O)cc1)NC(=O)[C@H](CO)NC(=O)[C@H](CO)NC(=O)[C@@H](NC(=O)[C@H](CC(=O)O)NC(=O)[C@H](CO)NC(=O)[C@@H](NC(=O)[C@H](Cc1ccccc1)NC(=O)[C@@H](NC(=O)CNC(=O)[C@H](CCC(=O)O)NC(=O)C(C)(C)NC(=O)[C@@H](N)Cc1c[nH]cn1)[C@@H](C)O)[C@@H](C)O)C(C)C)C(=O)N[C@@H](C)C(=O)N[C@@H](Cc1c[nH]c2ccccc12)C(=O)N[C@@H](CC(C)C)C(=O)N[C@H](C(=O)N[C@@H](CCCCN)C(=O)NCC(=O)N[C@@H](CCCNC(=N)N)C(N)=O)C(C)C` [SEQ ID NO: 12, H-(Aib)^2-EGT^5 FTSDV^10 SSYLE^15 GQAAK^20 E-(Aib)^22IAW^25 LVKGR^30] (H-H[Aib]EGTFTSDVSSYLEGQAAKE[Aib]IAWLVKGR-NH2): the EC50 amounted to 147 nM in experiment [1], 2.58 nM in experiment [2] and 147 nM in experiment [3].

As for `CC[C@H](C)[C@H](NC(=O)[C@](C)(Cc1ccccc1)NC(=O)[C@H](CCC(=O)O)NC(=O)[C@](C)(CCCCN)NC(=O)[C@H](C)NC(=O)[C@H](C)NC(=O)[C@H](CCC(N)=O)NC(=O)CNC(=O)[C@H](CCC(=O)O)NC(=O)[C@H](CC(C)C)NC(=O)[C@](C)(Cc1ccccc1)NC(=O)[C@H](CO)NC(=O)[C@H](CO)NC(=O)[C@@H](NC(=O)[C@H](CC(=O)O)NC(=O)[C@H](CO)NC(=O)[C@@H](NC(=O)[C@](C)(Cc1ccccc1)NC(=O)[C@H](CO)NC(=O)CNC(=O)[C@H](CCC(=O)O)NC(=O)C(C)(C)NC(=O)[C@@H](N)Cc1c[nH]cn1)[C@@H](C)O)C(C)C)C(=O)N[C@@H](C)C(=O)N[C@@](C)(Cc1ccccc1)C(=O)N[C@@H](CC(C)C)C(=O)N[C@H](C(=O)N[C@@H](CCCCN)C(=O)NCC(=O)NCC(N)=O)C(C)C` [SEQ ID NO: 44, H-(Aib)^2-EG-(S)^5-(α-MeF)^6-TSDV^10 SS-(α-MeF)^13-LE^15 GQAA-(α-MeK)^20 E-(α-MeF)^22-IA-(α-MeF)^25 LVKG-(G)^30] (H-H[Aib]EGS[αMeF]TSDVSS[αMeF]LEGQAA[αMeK]E[αMeF]IA[αMeF]LVKGG-NH2), the EC50 in experiment [1] is 104 nM; in experiment [2], 0.00985 nM; in experiment [3], 104 nM.

Regarding `CC[C@H](C)[C@H](NC(=O)[C@H](Cc1ccccc1)NC(=O)[C@H](CCC(=O)O)NC(=O)[C@H](CCCCN)NC(=O)[C@H](C)NC(=O)[C@H](C)NC(=O)[C@H](CCC(N)=O)NC(=O)CNC(=O)[C@H](CCC(=O)O)NC(=O)[C@H](CC(C)C)NC(=O)[C@H](Cc1ccc(O)cc1)NC(=O)[C@H](CO)NC(=O)[C@H](CO)NC(=O)[C@@H](NC(=O)[C@H](CC(=O)O)NC(=O)[C@H](CO)NC(=O)[C@@H](NC(=O)C(C)(C)NC(=O)[C@@H](NC(=O)CNC(=O)[C@H](CCC(=O)O)NC(=O)C(C)(C)NC(=O)[C@@H](N)Cc1c[nH]cn1)[C@@H](C)O)[C@@H](C)O)C(C)C)C(=O)N[C@@H](C)C(=O)N[C@@H](Cc1c[nH]c2ccccc12)C(=O)N[C@@H](CC(C)C)C(=O)N[C@H](C(=O)N[C@@H](CCCCN)C(=O)NCC(=O)N[C@@H](CCCNC(=N)N)C(N)=O)C(C)C` [SEQ ID NO: 7, H-(Aib)^2-EGT^5-(Aib)^6-TSDV^10 SSYLE^15 GQAAK^20 EFIAW^25 LVKGR^30], the EC50 in experiment [1] stood at 151 nM; in experiment [2], 0.0728 nM; in experiment [3], 151 nM.

For `CC[C@H](C)[C@H](NC(=O)[C@H](Cc1ccccc1)NC(=O)[C@H](CCC(=O)O)NC(=O)[C@H](CCCCN)NC(=O)[C@H](C)NC(=O)[C@H](C)NC(=O)[C@H](CCC(N)=O)NC(=O)CNC(=O)[C@H](CCC(=O)O)NC(=O)[C@H](CC(C)C)NC(=O)[C@H](Cc1ccc(O)cc1)NC(=O)[C@H](CO)NC(=O)[C@H](CO)NC(=O)[C@@H](NC(=O)[C@H](CC(=O)O)NC(=O)[C@H](CO)NC(=O)[C@@H](NC(=O)[C@H](Cc1ccccc1)NC(=O)[C@@H](NC(=O)CNC(=O)[C@H](CCC(=O)O)NC(=O)C(C)(C)NC(=O)[C@@H](N)Cc1c[nH]cn1)[C@@H](C)O)[C@@H](C)O)C(C)C)C(=O)N[C@@H](C)C(=O)N[C@@H](Cc1c[nH]c2ccccc12)C(=O)N[C@@H](CC(C)C)C(=O)N[C@H](C(=O)NC(C)(C)C(=O)NCC(=O)N[C@@H](CCCNC(=N)N)C(N)=O)C(C)C` [SEQ ID NO: 23, H-(Aib)^2-EGT^5 FTSDV^10 SSYLE^15 GQAAK^20 EFIAW^25 LV-(Aib)^28-GR^30], the values for the half-maximal effective concentration (EC50) in experiment [1], in experiment [2] and in experiment [3] were 103 nM, 0.0279 nM and 105 nM, respectively.

What is called EC50 is the concentration giving half of the maximal effect. A lower EC50 goes with a more potent agent.
